Measurements from the NIST ThermoML archive (doi:10.1016/j.tca.2014.05.028).

Assay: xn = mol fraction of the nth substance listed
Settings: 101 kPa, Liquid; for viscosity: Falling or rolling sphere viscometry; for mass density: Vibrating tube method

CCCC[N+]1(C)CCCC1.[Br-] [1-butyl-1-methylpyrrolidinium bromide] + O
Settings	mass density, 298.15 K [kg/m3]	mass density, 303.15 K [kg/m3]	mass density, 308.15 K [kg/m3]	mass density, 313.15 K [kg/m3]	mass density, 318.15 K [kg/m3]	viscosity, 298.15 K [mPa·s]	viscosity, 303.15 K [mPa·s]	viscosity, 308.15 K [mPa·s]	viscosity, 313.15 K [mPa·s]	viscosity, 318.15 K [mPa·s]
x1 = 0.0265	1049.2	1047.05	1044.76	1042.32	1039.75	1.64	1.444	1.24	1.099	0.987
x1 = 0.0561	1093.18	1090.36	1087.45	1084.45	1081.37	2.906	2.5	2.11	1.833	1.621
x1 = 0.0871	1125.96	1122.7	1119.39	1116.03	1112.61	4.9	4.146	3.445	2.945	2.579
x1 = 0.1283	1156.08	1152.59	1149.06	1145.49	1141.9	8.897	7.398	6.041	5.106	4.399
x1 = 0.1645	1174.63	1171.08	1167.5	1163.9	1160.28	13.84	11.27	9.049	7.53	6.4
x1 = 0.2074	1190.42	1186.89	1183.35	1179.78	1176.2	22.21	17.69	13.87	11.35	9.501
x1 = 0.2525	1202.66	1199.19	1195.71	1192.21	1188.7	36.28	27.6	21.22	17.02	14.03
x1 = 0.28	1208.32	1204.89	1201.45	1198	1194.53	44.98	34.67	26.45	20.97	17.12
x1 = 0.3012	1212.16	1208.76	1205.35	1201.93	1198.5	54.7	41.65	31.5	24.8	20.1
x1 = 0.3254	1215.99	1212.62	1209.25	1205.87	1202.48	67.64	51.14	38.4	30.02	24.1
x1 = 1	1221.19	1217.27	1213.38	1209.51	1205.66	–	–	–	–	–
